Data published in US10407409B2, “6-(5-hydroxy-1H-pyrazol-1-yl)nicotinamide inhibitors of PHD” (Takeda Pharmaceutical Company Limited, priority 2013, dated 2019).

What was measured:
[1] = biological target: PHD2 enzyme (residues 181-417) (Homo sapiens (Human), UniProt Q9GZT9); experiment: Inhibition of PHD enzyme (LC/MS peptide hydroxylation assay); assay type: biochemical; conditions: PHD2 (residues 181-417) 5 nM, 60 min pre-incubation; -log(IC50), IC50 molar
Outline: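 PHD2 (5 nM final) preincubated with inhibitor 60 min at RT in 50 mM HEPES, 50 mM KCl, 0.5 mM TCEP, 2 uM FeCl2, 0.1 mg/ml BSA, pH 7.3. Reaction started with biotin-peptide (1 uM), 2-oxoglutarate (2 uM), ascorbate (1 mM), quenched at 60 min; hydroxylated product by LC/MS, reported as pIC50.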

[2] = system: HIF1a protein in H9c2 rat cardiomyocytes; experiment: Cell-based HIF-alpha stabilization assay (inhibition of PHD in cells); conditions: Rattus norvegicus, H9c2, 24 h, 24 hrs compound incubation, HIF1a protein by ELISA, read-out: Inhibition of PHD in cells (pEC50) (converted)
Outline: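 Rat H9c2 cardiomyocytes, cultured 24 h, were treated 24 h with an 11-point serial dilution of compound. HIF1a in whole-cell lysates was quantified by ELISA as % of the maximal desferrioxamine response. EC50 came from curve fitting; EC50pos is the concentration reaching 50% of the desferrioxamine maximum.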

PHD2 enzyme (residues 181-417), sequence (Q9GZT9 181-417): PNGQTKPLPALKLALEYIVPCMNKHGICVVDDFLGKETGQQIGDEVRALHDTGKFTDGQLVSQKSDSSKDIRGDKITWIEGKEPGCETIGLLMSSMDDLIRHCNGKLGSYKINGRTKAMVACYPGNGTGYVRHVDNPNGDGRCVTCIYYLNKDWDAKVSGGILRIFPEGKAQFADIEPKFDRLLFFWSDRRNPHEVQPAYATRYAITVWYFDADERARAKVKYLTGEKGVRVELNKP

Row | PHD Inhibition (pIC50) [1] | SMILES | EC50 [2] [nM]
1 | 7.77 | Cc1cc(C#N)ccc1-c1cnn(-c2ccc(C(=O)N3CCC(CN(C)C)C3)cn2)c1O (stereo not shown) [Example 349, 4-(1-(5-(3-((dimethylamino)methyl)pyrrolidine-1-carbonyl)pyridin-2-yl)-5-hydroxy-1H-pyrazol-4-yl)-3-methylbenzonitrile] | 479
2 | 7.26 | CN1CCC2(CCN(C(=O)c3ccc(-n4ncc(-c5ccc(C#N)cc5)c4O)nc3)C2)C1 (stereo not shown) [Example 350, 4-(5-hydroxy-1-(5-(7-methyl-2,7-diazaspiro[4.4]nonane-2-carbonyl)pyridin-2-yl)-1H-pyrazol-4-yl)benzonitrile] | 3310
3 | 7.67 | N#Cc1ccc(-c2cnn(-c3ccc(C(=O)N4CCC(N5CCOCC5)C4)cn3)c2O)cc1 (stereo not shown) [Example 351, 4-(5-hydroxy-1-(5-(3-morpholinopyrrolidine-1-carbonyl)pyridin-2-yl)-1H-pyrazol-4-yl)benzonitrile] | 5370
4 | 7.47 | N#Cc1ccc(-c2cnn(-c3ccc(C(=O)N4CCC[C@H]4CN4CCCC4)cn3)c2O)cc1 [Example 352, (S)-4-(5-hydroxy-1-(5-(2-(pyrrolidin-1-ylmethyl)pyrrolidine-1-carbonyl)pyridin-2-yl)-1H-pyrazol-4-yl)benzonitrile] | 3470
5 | 7.25 | CN(C)CC1CCN(C(=O)c2ccc(-n3ncc(-c4ccc(C#N)cc4)c3O)nc2)C1 (stereo not shown) [Example 353, 4-(1-(5-(3-((dimethylamino)methyl)pyrrolidine-1-carbonyl)pyridin-2-yl)-5-hydroxy-1H-pyrazol-4-yl)benzonitrile] | 3550
6 | 8.46 | COCC[C@@H](C)NC(=O)c1ccc(-n2ncc(-c3ccc(C#N)cc3)c2O)nc1 [Example 357, (R)-6-(4-(4-cyanophenyl)-5-hydroxy-1H-pyrazol-1-yl)-N-(4-methoxybutan-2-yl)nicotinamide] | 2400
7 | 8.75 | COCC[C@H](C)NC(=O)c1ccc(-n2ncc(-c3ccc(C#N)cc3)c2O)nc1 [Example 358, (S)-6-(4-(4-cyanophenyl)-5-hydroxy-1H-pyrazol-1-yl)-N-(4-methoxybutan-2-yl)nicotinamide] | 1150
8 | 7.28 | CCN1CCCC1CN(C)C(=O)c1ccc(-n2ncc(-c3ccc(C#N)cc3)c2O)nc1 (stereo not shown) [Example 363, 6-(4-(4-cyanophenyl)-5-hydroxy-1H-pyrazol-1-yl)-N-((1-ethylpyrrolidin-2-yl)methyl)-N-methylnicotinamide] | 2090
9 | 6.73 | N#Cc1ccc(-c2cnn(-c3ccc(C(=O)N4CCC[C@@H]4CN4CCCC4)cn3)c2O)cc1 [Example 364, (R)-4-(5-hydroxy-1-(5-(2-(pyrrolidin-1-ylmethyl)pyrrolidine-1-carbonyl)pyridin-2-yl)-1H-pyrazol-4-yl)benzonitrile] | 7760
10 | 7.61 | Cc1cc(C#N)ccc1-c1cnn(-c2ccc(C(=O)N3CCC[C@H](N(C)C)C3)cn2)c1O [Example 376, (S)-4-(1-(5-(3-(dimethylamino)piperidine-1-carbonyl)pyridin-2-yl)-5-hydroxy-1H-pyrazol-4-yl)-3-methylbenzonitrile] | 891

More lines, now with the values behind:

Row | SMILES | PHD Inhibition (pIC50) [1] | EC50 [2] [nM]
11 | Cc1cc(C#N)ccc1-c1cnn(-c2ccc(C(=O)N3CCC(N4CCOCC4)C3)cn2)c1O (stereo not shown) [Example 347, 4-(5-hydroxy-1-(5-(3-morpholinopyrrolidine-1-carbonyl)pyridin-2-yl)-1H-pyrazol-4-yl)-3-methylbenzonitrile] | 8.29 | 631
12 | Cc1cc(C#N)ccc1-c1cnn(-c2ccc(C(=O)N3CCC[C@H]3CN3CCCC3)cn2)c1O [Example 348, (S)-4-(5-hydroxy-1-(5-(2-(pyrrolidin-1-ylmethyl)pyrrolidine-1-carbonyl)pyridin-2-yl)-1H-pyrazol-4-yl)-3-methylbenzonitrile] | 7.72 | 741
13 | COCCC1(NC(=O)c2ccc(-n3ncc(-c4ccc(C#N)cc4)c3O)nc2)CCCC1 [Example 354, 6-(4-(4-cyanophenyl)-5-hydroxy-1H-pyrazol-1-yl)-N-(1-(2-methoxyethyl)cyclopentyl)nicotinamide] | 8.36 | 1580
14 | CCN1CCCC1CN(C)C(=O)c1ccc(-n2ncc(-c3ccc(C#N)cc3C)c2O)nc1 (stereo not shown) [Example 355, 6-(4-(4-cyano-2-methylphenyl)-5-hydroxy-1H-pyrazol-1-yl)-N-((1-ethylpyrrolidin-2-yl)methyl)-N-methylnicotinamide] | 7.94 | 724
15 | COCCC1(NC(=O)c2ccc(-n3ncc(-c4ccc(C#N)cc4C)c3O)nc2)CCCC1 [Example 356] | 8.16 | 977
16 | COCC[C@@H](C)NC(=O)c1ccc(-n2ncc(-c3ccc(C#N)cc3C)c2O)nc1 [Example 359, (R)-6-(4-(4-cyano-2-methylphenyl)-5-hydroxy-1H-pyrazol-1-yl)-N-(4-methoxybutan-2-yl)nicotinamide] | 8.45 | 537
17 | COCC[C@H](C)NC(=O)c1ccc(-n2ncc(-c3ccc(C#N)cc3C)c2O)nc1 [Example 360, (S)-6-(4-(4-cyano-2-methylphenyl)-5-hydroxy-1H-pyrazol-1-yl)-N-(4-methoxybutan-2-yl)nicotinamide] | 8.60 | 407
18 | Cc1cc(C#N)ccc1-c1cnn(-c2ccc(C(=O)N(C)CC3CCCN(C)C3)cn2)c1O (stereo not shown) [Example 361, 6-(4-(4-cyano-2-methylphenyl)-5-hydroxy-1H-pyrazol-1-yl)-N-methyl-N-((1-methylpiperidin-3-yl)methyl)nicotinamide] | 7.76 | 457
19 | Cc1cc(C#N)ccc1-c1cnn(-c2ccc(C(=O)N(C)CC3CCN(C(C)C)C3)cn2)c1O (stereo not shown) [Example 362, 6-(4-(4-cyano-2-methylphenyl)-5-hydroxy-1H-pyrazol-1-yl)-N-((1-isopropylpyrrolidin-3-yl)methyl)-N-methylnicotinamide] | 7.80 | 525
20 | Cc1cc(C#N)ccc1-c1cnn(-c2ccc(C(=O)N3CCC[C@@H]3CN3CCCC3)cn2)c1O [Example 365, (R)-4-(5-hydroxy-1-(5-(2-(pyrrolidin-1-ylmethyl)pyrrolidine-1-carbonyl)pyridin-2-yl)-1H-pyrazol-4-yl)-3-methylbenzonitrile] | 7.80 | 417
21 | Cc1cc(C#N)ccc1-c1cnn(-c2ccc(C(=O)N(C)C3CCN(C)C3)cn2)c1O (stereo not shown) [Example 368, 6-(4-(4-cyano-2-methylphenyl)-5-hydroxy-1H-pyrazol-1-yl)-N-methyl-N-(1-methylpyrrolidin-3-yl)nicotinamide] | 7.89 | 575
22 | CCC(CC)N1CCN(C(=O)c2ccc(-n3ncc(-c4ccc(C#N)cc4C)c3O)nc2)CC1 [Example 369, 4-(5-hydroxy-1-(5-(4-(pentan-3-yl)piperazine-1-carbonyl)pyridin-2-yl)-1H-pyrazol-4-yl)-3-methylbenzonitrile] | 7.701 | 1200
23 | CCN1CCN(C(=O)c2ccc(-n3ncc(-c4ccc(C#N)cc4C)c3O)nc2)C[C@@H]1C [Example 370, (S)-4-(1-(5-(4-ethyl-3-methylpiperazine-1-carbonyl)pyridin-2-yl)-5-hydroxy-1H-pyrazol-4-yl)-3-methylbenzonitrile] | 8.287 | 562
24 | CO[C@H](C)CCNC(=O)c1ccc(-n2ncc(-c3ccc(C#N)cc3C)c2O)nc1 [Example 371, (R)-6-(4-(4-cyano-2-methylphenyl)-5-hydroxy-1H-pyrazol-1-yl)-N-(3-methoxybutyl)nicotinamide] | 8.20 | 832
25 | Cc1cc(C#N)ccc1-c1cnn(-c2ccc(C(=O)N3CCN(C)[C@@H](C)C3)cn2)c1O [Example 372, (S)-4-(1-(5-(3,4-dimethylpiperazine-1-carbonyl)pyridin-2-yl)-5-hydroxy-1H-pyrazol-4-yl)-3-methylbenzonitrile] | 8.26 | 832
26 | Cc1cc(C#N)ccc1-c1cnn(-c2ccc(C(=O)N3CCN(C4CCC4)CC3)cn2)c1O [Example 373, 4-(1-(5-(4-cyclobutylpiperazine-1-carbonyl)pyridin-2-yl)-5-hydroxy-1H-pyrazol-4-yl)-3-methylbenzonitrile] | 8.00 | 1200
27 | Cc1cc(C#N)ccc1-c1cnn(-c2ccc(C(=O)N3CCN(C4CC4)[C@H](C)C3)cn2)c1O [Example 375, (R)-4-(1-(5-(4-cyclopropyl-3-methylpiperazine-1-carbonyl)pyridin-2-yl)-5-hydroxy-1H-pyrazol-4-yl)-3-methylbenzonitrile] | 8.06 | 1000
28 | Cc1cc(C#N)ccc1-c1cnn(-c2ccc(C(=O)N3CCN(C)C(C)(C)C3)cn2)c1O [Example 377, 4-(5-hydroxy-1-(5-(3,3,4-trimethylpiperazine-1-carbonyl)pyridin-2-yl)-1H-pyrazol-4-yl)-3-methylbenzonitrile] | 8.44 | 813
29 | CCN1CCN(C(=O)c2ccc(-n3ncc(-c4ccc(C#N)cc4C)c3O)nc2)CC1(C)C [Example 378, 4-(1-(5-(4-ethyl-3,3-dimethylpiperazine-1-carbonyl)pyridin-2-yl)-5-hydroxy-1H-pyrazol-4-yl)-3-methylbenzonitrile] | 8.21 | 1290
